The source of these data is PubChem BioAssay (NCI).

Values joined by “and” are separate entries in the source; they are usually repeats but may differ in a detail not shown here. Equal entries are not always repeated.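 Where inhibition never reached the appropriate level, the endpoint shown equals the highest concentration tested. Otherwise, values were interpolated linearly from a five-concentration, 48-hour dose response in 96-well plates. GI50 = concentration required for 50% inhibition of growth. TGI marks complete inhibition of growth.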

Among the test systems are T-47D breast; SK-MEL-5 melanoma; SR leukemia; MDA-MB-435; KM12 colon; MCF7 breast; RPMI-8226 leukemia; HL-60(TB) leukemia; SW-620 colon; HCT-116 colon.
Holding throughout (assay): NCI anticancer screen, dose series, 48 h

With `CCc1ccc(NC(=O)Nc2c[nH]c3ccccc23)cc1`, the GI50 with T-47D breast is 16.3 µM; in the experiment with SK-MEL-5 melanoma it was 32.7 µM; in the experiment with SR leukemia, 2.2 µM; in the experiment on MDA-MB-435 it was 22.6 µM; in the experiment with KM12 colon, 5.63 µM; with MCF7 breast it was 29.3 µM. Moreover, the GI50 with RPMI-8226 leukemia was 0.567 µM; in the experiment on HL-60(TB) leukemia, 0.811 µM; with SW-620 colon, more than 38.3 µM; with HCT-116 colon, 32.9 µM. The TGI is more than 82.2 µM with T-47D breast; more than 54.1 µM in the experiment with SK-MEL-5 melanoma; more than 100 µM in the experiment on SR leukemia; more than 49.5 µM in the experiment on MDA-MB-435; more than 43.4 µM with KM12 colon; more than 65.5 µM with MCF7 breast. Also, the TGI is more than 100 µM in the experiment with RPMI-8226 leukemia, 5.48 µM in the experiment on HL-60(TB) leukemia, more than 55 µM in the experiment with SW-620 colon and more than 56 µM in the experiment with HCT-116 colon.

For the molecule `CCOC(=O)c1c2c(n(CC(C)C)c1C)-c1nc[nH]c1C(=O)C2=O`, the GI50 in the experiment on T-47D breast was 3.3 µM; in the experiment on SK-MEL-5 melanoma, 16.2 µM; with SR leukemia, 0.384 µM; in the experiment with MDA-MB-435 it was 18.2 µM; in the experiment with KM12 colon it was 16.9 µM; with MCF7 breast, 16.3 µM. Moreover, the GI50 in the experiment on RPMI-8226 leukemia is 8.91 µM; with HL-60(TB) leukemia, 0.388 µM; in the experiment on SW-620 colon, 20.8 µM; with HCT-116 colon, 5.92 µM. The TGI with T-47D breast is 14.3 µM; in the experiment on SK-MEL-5 melanoma it was 30.2 µM; with SR leukemia it was 2.15 µM; with MDA-MB-435 it was 32.6 µM; with KM12 colon, 31.2 µM; with MCF7 breast, 29.9 µM. The TGI in the experiment with RPMI-8226 leukemia was found to be 21.6 µM; with HL-60(TB) leukemia it was 2.82 µM; with SW-620 colon it was 39.1 µM; in the experiment on HCT-116 colon it was 18.8 µM.

As to `C=C(C)[C@@H]1CC=C(CO)CC1`, the TGI was more than 10 µM in the experiment on T-47D breast; > 10 µM and 649 µM in the experiment with SK-MEL-5 melanoma; > 10 µM and 1080 µM in the experiment with SR leukemia; more than 10 µM with MDA-MB-435; > 10 µM and 1050 µM in the experiment with KM12 colon; more than 10 µM in the experiment on MCF7 breast. Also, the TGI was more than 10 µM in the experiment with RPMI-8226 leukemia; > 10 µM and 267 µM in the experiment on HL-60(TB) leukemia; 1340 µM in the experiment on SW-620 colon; > 10 µM and 627 µM in the experiment on HCT-116 colon. Besides, the GI50 in the experiment on SK-MEL-5 melanoma, with SR leukemia, with KM12 colon, in the experiment with HL-60(TB) leukemia and with HCT-116 colon was more than 10 µM throughout.

For the molecule `OCC1OC(n2ccc3c2ncn2ncnc32)C(O)C1O` (configuration not stated), the GI50 in the experiment on T-47D breast is 0.273 µM; in the experiment with SK-MEL-5 melanoma, 12 µM; in the experiment on SR leukemia, 2.96 µM; in the experiment on MDA-MB-435 it was 6.5 µM; in the experiment with KM12 colon it was 2.42 µM; with MCF7 breast, 0.183 µM. Moreover, the GI50 in the experiment on RPMI-8226 leukemia was 6.62 µM; in the experiment on HL-60(TB) leukemia, 0.854 µM; with SW-620 colon, 0.528 µM; with HCT-116 colon it was 1.38 µM. Further, the TGI is 5.54 µM in the experiment with T-47D breast; 50.1 µM in the experiment on SK-MEL-5 melanoma; more than 68.8 µM in the experiment on SR leukemia; more than 100 µM in the experiment with MDA-MB-435; more than 100 µM in the experiment with KM12 colon; 20.4 µM with MCF7 breast. In addition, the TGI with RPMI-8226 leukemia was more than 100 µM; in the experiment on HL-60(TB) leukemia it was 5.5 µM; in the experiment with SW-620 colon it was more than 100 µM; with HCT-116 colon, more than 100 µM.

For the molecule `N=C(N)c1nn(C2OC(CO)C(O)C2O)c2nc[nH]c(=O)c12` (configuration not stated), the GI50 with T-47D breast is 0.255 µM; in the experiment on SK-MEL-5 melanoma, 0.444 µM; in the experiment on SR leukemia, 0.34 µM; in the experiment with MDA-MB-435 it was 0.311 µM; in the experiment on KM12 colon it was 0.341 µM; in the experiment on MCF7 breast it was 0.482 µM. Further, the GI50 in the experiment on RPMI-8226 leukemia is 0.352 µM; in the experiment on HL-60(TB) leukemia, 0.207 µM; with SW-620 colon, 0.53 µM; in the experiment with HCT-116 colon it was 0.347 µM. The TGI turned out to be 2.71 µM in the experiment with T-47D breast; 1.53 µM in the experiment on SK-MEL-5 melanoma; 1.16 µM in the experiment with MDA-MB-435; 1.46 µM with KM12 colon; 5.09 µM in the experiment with MCF7 breast; 2.5 µM with RPMI-8226 leukemia. Moreover, the TGI in the experiment on HL-60(TB) leukemia was 0.538 µM; in the experiment on SW-620 colon it was 3.28 µM; in the experiment with HCT-116 colon, 1.29 µM.

Turning to `c1ccc2[nH]c(-c3ccc(N4CCN(c5ccc(-c6nc7ccccc7[nH]6)cc5)CC4)cc3)nc2c1`, the GI50 with T-47D breast was 30.4 µM; in the experiment on SK-MEL-5 melanoma it was more than 100 µM; in the experiment with SR leukemia, 3.08 µM; with MDA-MB-435, more than 100 µM; in the experiment on KM12 colon it was 71.1 µM; in the experiment with MCF7 breast, 34.5 µM. The GI50 in the experiment on RPMI-8226 leukemia was 40 µM; in the experiment with HL-60(TB) leukemia it was more than 100 µM; in the experiment on SW-620 colon, 58 µM; with HCT-116 colon, 5.11 µM. For the same molecule, the TGI in the experiment on T-47D breast was more than 100 µM; in the experiment with SK-MEL-5 melanoma, more than 100 µM; in the experiment with SR leukemia it was 6.85 µM; with MDA-MB-435, more than 100 µM; in the experiment on KM12 colon, more than 100 µM; in the experiment on MCF7 breast, more than 100 µM. Further, the TGI in the experiment on RPMI-8226 leukemia, in the experiment on HL-60(TB) leukemia, in the experiment on SW-620 colon and with HCT-116 colon was more than 100 µM throughout.

Take `O=C(CCl)c1ccc([N+](=O)[O-])o1`: the GI50 was 1.89 µM in the experiment on T-47D breast; 4.11 µM with SK-MEL-5 melanoma; 0.406 µM in the experiment with SR leukemia; 1.89 µM in the experiment with MDA-MB-435; 2.02 µM with KM12 colon; 1.87 µM with MCF7 breast. Further, the GI50 with RPMI-8226 leukemia was 0.873 µM; in the experiment with HL-60(TB) leukemia, 1.64 µM; with SW-620 colon it was 0.886 µM; with HCT-116 colon, 0.519 µM. Further, the TGI in the experiment with T-47D breast came to 4.78 µM; with SK-MEL-5 melanoma, 15.7 µM; in the experiment with SR leukemia, 1.81 µM; with MDA-MB-435, 4.22 µM; in the experiment on KM12 colon, 4.6 µM; in the experiment on MCF7 breast, 5.82 µM. For the same molecule, the TGI is 2.54 µM in the experiment on SW-620 colon and 2.4 µM in the experiment with HCT-116 colon.
